One data set relates to Cryptosporidium parvum. Put plainly: qRT-PCR assay of the growth of C. parvum in vitro in HCT-8 host cells (primary and secondary screening, EC50). To be noted: Cryptosporidium parvum. The format is cell-based.
Setting [1] is: HCT-8, primary screening at 10 uM, read-out: Inhibition (%).
The mark [2] stands for this setting: HCT-8, secondary screening at 3.3 uM, read-out: % Inhibition (3.3 uM).
Setting [3] is: primary screening at 10 uM, treated vs control.

This is an account of results in publication PMC6736568, “Discovery of Novel Anti-cryptosporidial Activities From Natural Products by in vitro High-Throughput Phenotypic Screening” (Frontiers in Microbiology, 2019).

Each structure is given as a SMILES string. Structures can show the parent of a compound that is named as a salt. Where two headings read alike, the source gives them in different places.

As for `N[C@@H](Cc1c[nH]c2ccccc12)C(=O)O` [TRYPTOPHAN], the inhibition at 10 µM in the data set on Cryptosporidium parvum (HCT-8) stood at 85.5%. For the same molecule, the inhibition at 3.3 µM with Cryptosporidium parvum (HCT-8, read-out: % Inhibition (3.3 uM)) was 17%. Also, in the data set with HCT-8 host cells (Hs18S) (human, 41 h, 10 μM), the “Hs18S ΔCT” value is given as -0.75. Moreover, the cytotoxicity at 41 h, 10 µM in the data set “in vitro” (human) was -68.2%.
Take `COc1cc([C@@H]2c3cc4c(cc3[C@H](O)[C@H]3COC(=O)[C@@H]23)OCO4)cc(OC)c1OC` [PICROPODOPHYLLIN]: the inhibition at 10 µM in the data set on Cryptosporidium parvum (setting [1]) stood at 79.4%. For the same molecule, the inhibition at 3.3 µM in the data set on Cryptosporidium parvum (setting [2]) turned out to be 56%. For the same molecule, the “Hs18S ΔCT” value with HCT-8 host cells (Hs18S) (setting [3]) was 0.94. Also, in the data set “in vitro”, the cytotoxicity at 41 h, 10 µM came out at 47.8%.
For the molecule `COc1ccc2c3c([nH]c2c1)C(C)=NCC3` [HARMALINE], the inhibition at 10 µM with Cryptosporidium parvum (setting [1]) was -31.9%. Besides, the “Hs18S ΔCT” value with HCT-8 host cells (Hs18S) (setting [3]) worked out at 0.01. In the data set “in vitro”, the cytotoxicity at 10 µM was found to be 0.9%.
Turning to `C[C@@H](CO)NC(=O)[C@@H]1C=C2c3cccc4[nH]cc(c34)C[C@H]2N(C)C1` [ERGONOVINE MALEATE], in the data set on Cryptosporidium parvum (setting [1]), the inhibition at 10 µM was 2.56%. Besides, the “Hs18S ΔCT” value in the data set with HCT-8 host cells (Hs18S) (setting [3]) amounted to 0.23. The cytotoxicity at 10 µM in “in vitro” stood at 14.5%.
For the molecule `NCC(O)c1ccc(O)cc1` (stereo not drawn) [OCTOPAMINE HYDROCHLORIDE], the inhibition at 10 µM in the data set with Cryptosporidium parvum (setting [1]) turned out to be 85.1%. Besides, in the data set on Cryptosporidium parvum (setting [2]), the inhibition at 3.3 µM was -12%. In addition, in the data set with HCT-8 host cells (Hs18S) (human, 41 h, 10 μM), the “Hs18S ΔCT” value is -0.21. In addition, the cytotoxicity at 41 h, 10 µM in “in vitro” (human) was -15.8%.
Consider `CC(C)(C#N)O[C@@H]1O[C@H](CO)[C@@H](O)[C@H](O)[C@H]1O` [LINAMARIN], for which the inhibition at 10 µM with Cryptosporidium parvum (setting [1]) stood at 6.23%. For the same molecule, the “Hs18S ΔCT” value in the data set on HCT-8 host cells (Hs18S) (setting [3]) worked out at 0.59. Further, the cytotoxicity at 41 h, 10 µM in the data set “in vitro” (human) came to 33.5%.
Turning to `CC1=CCc2c(cc3oc(C)cc(=O)c3c2O)OC1` [PTAEROXYLIN], the inhibition at 10 µM in the data set with Cryptosporidium parvum (setting [1]) was -20.7%. Moreover, the “Hs18S ΔCT” value in the data set on HCT-8 host cells (Hs18S) (human, 41 h, 10 μM) was -0.13. The cytotoxicity at 41 h, 10 µM in “in vitro” (human) is -9.7%.
Consider `COC(=O)c1cc(OC)c(=O)c2c(OC)c(OC)ccc2c1` [METHYL 7-DESOXYPURPUROGALLIN-7-CARBOXYLATE TRIMETHYL ETHER], for which the inhibition at 10 µM in the data set on Cryptosporidium parvum (setting [1]) was -15.9%. The “Hs18S ΔCT” value in the data set on HCT-8 host cells (Hs18S) (human, 41 h, 10 μM) turned out to be 0.00. For the same molecule, the cytotoxicity at 41 h, 10 µM in the data set “in vitro” (human) was 0.1%.
Consider `OC[C@@H]1CCCN2CCCC[C@H]12` [LUPININE], for which the inhibition at 10 µM in the data set on Cryptosporidium parvum (setting [1]) amounted to 26.1%. Moreover, the “Hs18S ΔCT” value in the data set with HCT-8 host cells (Hs18S) (human, 41 h, 10 μM) worked out at 0.18. The cytotoxicity at 41 h, 10 µM in “in vitro” (human) was found to be 11.8%.
In the case of `O[C@H]1[C@H](O)[C@@H](O)[C@H](O)[C@@H](O)[C@H]1O` [INOSITOL], in the data set on Cryptosporidium parvum (setting [1]), the inhibition at 10 µM was 11.9%. Also, the “Hs18S ΔCT” value in the data set with HCT-8 host cells (Hs18S) (setting [3]) came out at 0.08. In addition, in the data set “in vitro” (human), the cytotoxicity at 41 h, 10 µM stood at 5.5%.
For `COc1ccc(-c2coc3cc(O)ccc3c2=O)cc1` [FORMONONETIN], in the data set on Cryptosporidium parvum (setting [1]), the inhibition at 10 µM was determined as 13.2%. Also, the “Hs18S ΔCT” value with HCT-8 host cells (Hs18S) (human, 41 h, 10 μM) was -0.62. For the same molecule, the cytotoxicity at 41 h, 10 µM in the data set “in vitro” (human) is -53.6%.
Regarding `COc1ccc2c(=O)ccoc2c1` [7-METHOXYCHROMONE], in the data set on Cryptosporidium parvum (setting [1]), the inhibition at 10 µM was -17.1%. The “Hs18S ΔCT” value with HCT-8 host cells (Hs18S) (human, 41 h, 10 μM) is given as -0.34. In “in vitro” (human), the cytotoxicity at 41 h, 10 µM is -26.1%.
Take `O=C1C=C2C(=CCOC2O)O1` (stereo not drawn) [PATULIN]: the inhibition at 10 µM in the data set with Cryptosporidium parvum (setting [1]) came to 91.4%. For the same molecule, the inhibition at 3.3 µM in the data set with Cryptosporidium parvum (setting [2]) stood at 10%. In addition, in the data set on HCT-8 host cells (Hs18S) (setting [3]), the “Hs18S ΔCT” value is 0.81. The cytotoxicity at 10 µM in the data set “in vitro” was determined as 43%.
For the molecule `COC1=CC(=O)C[C@@H](C)[C@]12Oc1c(Cl)c(OC)cc(OC)c1C2=O` [GRISEOFULVIN], the inhibition at 10 µM in the data set on Cryptosporidium parvum (setting [1]) was determined as 66%. Besides, the inhibition at 3.3 µM in the data set with Cryptosporidium parvum (setting [2]) was 9%. In addition, the “Hs18S ΔCT” value in the data set with HCT-8 host cells (Hs18S) (human, 41 h, 10 μM) amounted to 0.30. The cytotoxicity at 41 h, 10 µM in “in vitro” (human) amounted to 18.7%.
With `C/C(=C\C(=O)OCCCCCCCCC(=O)O)C[C@@H]1OC[C@H](C[C@@H]2O[C@H]2[C@@H](C)[C@H](C)O)[C@@H](O)[C@H]1O` [MUPIROCIN], the inhibition at 10 µM in the data set on Cryptosporidium parvum (setting [1]) worked out at 45.6%. The “Hs18S ΔCT” value in the data set on HCT-8 host cells (Hs18S) (human, 41 h, 10 μM) is reported as 0.09. The cytotoxicity at 41 h, 10 µM in the data set “in vitro” (human) came out at 5.8%.
As to `CC1(C)C=Cc2cc3ccc(=O)oc3cc2O1` [XANTHYLETIN], in the data set on Cryptosporidium parvum (setting [1]), the inhibition at 10 µM stood at 1.74%. The “Hs18S ΔCT” value in the data set on HCT-8 host cells (Hs18S) (setting [3]) is reported as 0.12. Further, in “in vitro”, the cytotoxicity at 10 µM was determined as 8.1%.
Turning to `CC[C@H]1OC(=O)[C@H](C)[C@@H](O[C@H]2C[C@@](C)(OC)[C@@H](O)[C@H](C)O2)[C@H](C)[C@@H](O[C@@H]2O[C@H](C)C[C@H](N(C)C)[C@H]2O)[C@](C)(O)C[C@@H](C)C(=O)[C@H](C)[C@@H](O)[C@]1(C)O` [ERYTHROMYCIN], the inhibition at 10 µM with Cryptosporidium parvum (setting [1]) was determined as 94.6%. Moreover, the inhibition at 3.3 µM in the data set with Cryptosporidium parvum (setting [2]) is -13%. Besides, in the data set on HCT-8 host cells (Hs18S) (human, 41 h, 10 μM), the “Hs18S ΔCT” value is 0.62. The cytotoxicity at 41 h, 10 µM in “in vitro” (human) came to 35%.
As for `COc1cc(O)c(C)c(O)c1` [2,6-DIHYDROXY-4-METHOXYTOLUENE], in the data set with Cryptosporidium parvum (setting [1]), the inhibition at 10 µM amounted to 19%. The “Hs18S ΔCT” value in the data set with HCT-8 host cells (Hs18S) (human, 41 h, 10 μM) was determined as 0.06. Besides, in the data set “in vitro” (human), the cytotoxicity at 41 h, 10 µM is 4.4%.
The corresponding values for `C[C@]12CC[C@@H]3c4ccc(O)cc4CC[C@H]3[C@@H]1CCC2=O` [ESTRONE] are 28.1%, -0.24 and -18.4%.
For `CC(=O)O[C@H]1CC[C@@]2(C)C(=CC(=O)[C@H]3[C@@H]4CC[C@H]([C@H](C)CCCC(C)C)[C@@]4(C)CC[C@@H]32)C1` [7-OXOCHOLESTERYL ACETATE] the same measures were -24.9%, -0.20 and -15.2%.

As a reminder, the inhibition is the change of the read-out against control, counted positive when it falls.
